This is an account of results in patent US11590109B2 (priority 2016, dated 2023).

For orientation: IC50 means the concentration needed to halve the response being measured.

In one data set the test system is Zika Virus. Put plainly: Inhibition of viral replication (CPE) at cellular level, Zika Virus in Vero. The settings on record: for SI (TC50/IC50): Zika Virus in host cell Vero; for IC50: Zika virus, Vero.
Data set [1] relates to RSV (human respiratory syncytial virus). In words: Inhibition of viral replication (CPE) at cellular level, RSV in Vero. The note with it: for SI (TC50/IC50): RSV in host cell Vero; for IC50: human respiratory syncytial virus, Vero.
Data set [2] concerns Dengue Virus 2 (type 2 dengue virus). In words: Inhibition of viral replication (CPE) at cellular level, Dengue Virus 2 in Vero. In kind it is cell-based. The note with it: Dengue Virus 2 in host cell Vero; for IC50: CPE. The source says:
Activity Test for Inhibition of Viral Replication at Cellular Level […]
The present inventors tested inhibitory effects of the compound of the present invention on cytopathic effects (CPE) caused by viral infection on mammalian cells.
Half-inhibitory concentration IC50 and half toxic concentration TC50 of the compound against Dengue Virus 2 (type 2 dengue virus) in host cell Vero (African green monkey kidney cell).

In data set [3] the test system is EV71 (hand-foot-and-mouth virus). In words: microbe, parasite or virus in culture. The note with it: Enterovirus A.
For data set [4], the system named is H1N1 (influenza virus). Put plainly: microbe, parasite or virus in culture. The note with it: Influenza A virus, H1N1, MDCK.
Data set [5] has as its system JEV (Japanese encephalitis virus). In words: Inhibition of viral replication (CPE) at cellular level, JEV in Vero. The note with it: for SI (TC50/IC50): JEV in host cell Vero; for IC50: Japanese encephalitis virus, Vero.
Data set [6] concerns H3N2 (influenza virus). The note with it: H3N2 in host cell MDCK.
Data set [7] relates to H1N1 (influenza virus). The note with it: H1N1 in host cell MDCK.
Data set [8] has as its system H7N9 (influenza virus). In words: microbe, parasite or virus in culture. The note with it: Influenza A virus, H7N9, MDCK.
Data set [9] has as its system EV71 (hand-foot-and-mouth virus). The settings on record: for SI (TC50/IC50): EV71 in host cell RD.
The nature of data set [10]: in vitro. The note with it: African green monkey.
Data set [11] relates to H3N2 (influenza virus). In words: microbe, parasite or virus in culture. The settings on record: Influenza A virus, H3N2, MDCK.
Data set [12] has as its system H7N9 (influenza virus). The settings on record: H7N9 in host cell MDCK.
Data set [13] in a line: Determination of TC50 (half toxicity concentration) in RD cells. Format: cell-based. The note with it: human, host cell RD, EV71 table.
Data set [14] is described as follows: in vitro. The note with it: dog, TC50.
Where [15] appears, read: TC50, host cell Vero, Dengue Virus 2 table.
Where [16] appears, read: TC50, host cell Vero, RSV table.
[17] abbreviates: TC50, host cell Vero, Zika Virus table.

Consider `O=C(O)c1cc(F)ccc1/C=N/Nc1nc(-c2ccccc2Cl)cs1` [Compound 10-1], for which the “SI (TC50/IC50)” value came to 523 in the data set with Zika Virus; 6.8 in data set [1]; 300 in data set [2]; 306 in data set [5]; 313 with H3N2 (influenza virus) [6]; 615 with H1N1 (influenza virus) [7]. Moreover, the figures for the “SI (TC50/IC50)” value (in data set [9]; in the data set on H7N9 (influenza virus) [12]) were 5.6 and 516, respectively. The IC50 in the data set with Zika Virus was found to be 170 nM; in data set [1], 7390 nM; in [2], 150 nM; in data set [3] it was 180 nM; with H1N1 (influenza virus) [4], 390 nM; in data set [5] it was 160 nM. The IC50 with H7N9 (influenza virus) [8] was 490 nM; with H3N2 (influenza virus) [11], 310 nM. Besides, the CC50 is 49000 nM in “in vitro [10]”; 45000 nM in the data set “in vitro [10]” (setting [15]); 50000 nM in “in vitro [10]” (setting [16]); 89000 nM in the data set “in vitro [10]” (setting [17]); 1000 nM in data set [13].
Turning to `CN(/N=C/c1ccc(F)cc1C(=O)O)c1nc(-c2ccccc2Cl)cs1` [Compound 10, (E)-4-(2-chlorophenyl)-2-[1-methyl-2-(2-carboxyl-4-fluorobenzylidene)hydrazino]thiazole], the “SI (TC50/IC50)” value was 350 in the data set with Zika Virus; 3.6 in data set [1]; 460 in [2]; 216 in data set [5]; 320 in the data set with H3N2 (influenza virus) [6]; 233 in the data set with H1N1 (influenza virus) [7]. For the same compound, the “SI (TC50/IC50)” value in data set [9] is 10; in the data set on H7N9 (influenza virus) [12], 161. Besides, the IC50 with Zika Virus came out at 60 nM; in data set [1], 5210 nM; in data set [2], 50 nM; in [3], 50 nM; in the data set on H1N1 (influenza virus) [4], 210 nM; in data set [5], 60 nM. In addition, the IC50 with H7N9 (influenza virus) [8] was 280 nM; with H3N2 (influenza virus) [11], 100 nM. Moreover, the “inhibitory effects on human hand-foot-mouth virus EV71” value in data set [9] (FIG. 2) was “a certain inhibitory effects”. For the same compound, the CC50 worked out at 13000 nM in the data set “in vitro [10]”; 23000 nM in the data set “in vitro [10]” (setting [15]); 19000 nM in the data set “in vitro [10]” (setting [16]); 21000 nM in “in vitro [10]” (setting [17]); 500 nM in data set [13]; 32000 nM in “in vitro [14]”.
Regarding `Cc1sc(N/N=C/c2ccccc2C(=O)O)nc1-c1ccccc1` [Compound 12-1], the “SI (TC50/IC50)” value in the data set on Zika Virus turned out to be 110; in data set [1] it was 5.6; in [2], 59; in data set [5] it was 138.7; in the data set on H3N2 (influenza virus) [6], 246; with H1N1 (influenza virus) [7], 362. Besides, the “SI (TC50/IC50)” value came to 5 in data set [9] and 108 with H7N9 (influenza virus) [12]. Moreover, the half-maximal inhibitory concentration (IC50) in the data set on Zika Virus turned out to be 300 nM; in data set [1], 6910 nM; in data set [2] it was 390 nM; in data set [3], 390 nM; in the data set with H1N1 (influenza virus) [4], 910 nM; in data set [5] it was 310 nM. Also, the half-maximal inhibitory concentration (IC50) in the data set with H7N9 (influenza virus) [8] is 2300 nM; in the data set on H3N2 (influenza virus) [11], 520 nM. In addition, the CC50 was found to be 43000 nM in the data set “in vitro [10]”; 23000 nM in “in vitro [10]” (setting [15]); 39000 nM in the data set “in vitro [10]” (setting [16]); 33000 nM in “in vitro [10]” (setting [17]); 2000 nM in [13].
In the case of `Cc1ccc(/C=N/N(C)c2nc(-c3ccccc3Cl)cs2)c(C(=O)O)c1` [Compound 9, (E)-4-(2-chlorophenyl)-2-[1-methyl-2-(4-methyl-2-carboxybenzylidene)hydrazino]thiazole], the “SI (TC50/IC50)” value with Zika Virus is on record as 100; in [1] it was 15; in data set [2] it was 106; in data set [5], 73.3; in the data set with H3N2 (influenza virus) [6], 137; in the data set with H1N1 (influenza virus) [7], 240. The “SI (TC50/IC50)” value in data set [9] is given as 8.3; in the data set on H7N9 (influenza virus) [12] it was 83. The IC50 was found to be 150 nM with Zika Virus; 2270 nM in [1]; 170 nM in data set [2]; 120 nM in data set [3]; 270 nM in the data set on H1N1 (influenza virus) [4]; 150 nM in data set [5]. Also, the IC50 with H7N9 (influenza virus) [8] was 530 nM; in the data set with H3N2 (influenza virus) [11], 190 nM. For the same compound, the CC50 in “in vitro [10]” came out at 11000 nM; in the data set “in vitro [10]” (setting [15]) it was 18000 nM; in “in vitro [10]” (setting [16]), 35000 nM; in “in vitro [10]” (setting [17]), 15000 nM; in data set [13], 1000 nM.
With `O=C(O)c1ccccc1/C=N/Nc1nc(-c2cc(Cl)ccc2Cl)cs1` [Compound 55, (E)-2-((2-(4-(2,5-dichlorophenyl)thiazol-2-yl)hydrazono)methyl)benzoic Acid], the “SI (TC50/IC50)” value is given as 206 in the data set on Zika Virus; 19 in data set [1]; 110 in [2]; 45.6 in the data set with H3N2 (influenza virus) [6]; 50 in the data set with H1N1 (influenza virus) [7]; 6 in [9]. Also, the IC50 in the data set with Zika Virus amounted to 330 nM; in [1], 8200 nM; in [2] it was 630 nM; in data set [3], 510 nM; in the data set with H1N1 (influenza virus) [4] it was 8200 nM; in the data set with H7N9 (influenza virus) [8] it was 6900 nM. Further, the IC50 in the data set on H3N2 (influenza virus) [11] was found to be 12000 nM. Besides, the CC50 came out at 69000 nM in “in vitro [10]” (setting [15]); 154000 nM in the data set “in vitro [10]” (setting [16]); 68000 nM in “in vitro [10]” (setting [17]); 3100 nM in data set [13]; 547000 nM in “in vitro [14]”.
Turning to `Cc1sc(N(C)/N=C/c2ccccc2C(=O)O)nc1-c1ccccc1` [Compound 12, (E)-5-methyl-4-phenyl-2-[1-methyl-2-(2-carboxybenzylidene)hydrazino]thiazole], the “SI (TC50/IC50)” value came out at 56.5 with Zika Virus; 11.7 in data set [1]; 65 in [2]; 100 in data set [5]; 146 with H3N2 (influenza virus) [6]; 77 in the data set with H1N1 (influenza virus) [7]. Moreover, the figures for the “SI (TC50/IC50)” value (in data set [9]; in the data set on H7N9 (influenza virus) [12]) were 4 and 54, respectively. In addition, the IC50 with Zika Virus came out at 230 nM; in [1] it was 1790 nM; in data set [2], 260 nM; in data set [3], 250 nM; in the data set on H1N1 (influenza virus) [4], 790 nM; in data set [5], 130 nM. Moreover, the IC50 with H7N9 (influenza virus) [8] was 1090 nM; in the data set on H3N2 (influenza virus) [11] it was 350 nM. Moreover, the CC50 in the data set “in vitro [10]” (setting [15]) stood at 17000 nM; in “in vitro [10]” (setting [16]), 21000 nM; in “in vitro [10]” (setting [17]), 13000 nM; in [13] it was 1000 nM; in the data set “in vitro [14]” it was 51000 nM.
As for `Cc1ccc(/C=N/Nc2nc(-c3ccccc3Cl)cs2)c(C(=O)O)c1` [Compound 9-1], the “SI (TC50/IC50)” value is listed as 127 in the data set on Zika Virus; 40 in data set [1]; 125.8 in data set [2]; 100 in data set [5]; 330 in the data set on H3N2 (influenza virus) [6]; 653 in the data set with H1N1 (influenza virus) [7]. The “SI (TC50/IC50)” value in data set [9] was 9; in the data set on H7N9 (influenza virus) [12] it was 327. Moreover, the IC50 in the data set with Zika Virus is 330 nM; in data set [1] it was 3360 nM; in data set [2], 310 nM; in [3], 330 nM; in the data set on H1N1 (influenza virus) [4], 360 nM; in [5] it was 320 nM. Moreover, the IC50 amounted to 670 nM in the data set on H7N9 (influenza virus) [8] and 270 nM in the data set on H3N2 (influenza virus) [11]. Besides, the CC50 in “in vitro [10]” came to 32000 nM; in the data set “in vitro [10]” (setting [15]), 39000 nM; in the data set “in vitro [10]” (setting [16]) it was 135000 nM; in “in vitro [10]” (setting [17]) it was 42000 nM; in [13], 3000 nM.
With `CN(/N=C/c1ccccc1C(=O)O)c1nc(-c2ccccc2Cl)cs1` [Compound 1, (E)-4-(2-chlorophenyl)-2-[1-methyl-2-(2-carboxybenzylidene)hydrazino]thiazole], the “SI (TC50/IC50)” value stood at 130 in the data set with Zika Virus; 145 in data set [2]; 80 in data set [5]; 125 in the data set on H3N2 (influenza virus) [6]; 83 with H1N1 (influenza virus) [7]; 7.1 in data set [9]. Moreover, in the data set with H7N9 (influenza virus) [12], the “SI (TC50/IC50)” value is recorded as 11. Besides, the IC50 came to 100 nM with Zika Virus; 4340 nM in [1]; 110 nM in [2]; 140 nM in data set [3]; 420 nM in the data set with H1N1 (influenza virus) [4]; 150 nM in [5]. In addition, the concentration for half-maximal inhibition (IC50) in the data set with H7N9 (influenza virus) [8] was found to be 2320 nM; in the data set with H3N2 (influenza virus) [11] it was 120 nM. Moreover, the CC50 in “in vitro [10]” amounted to 12000 nM; in “in vitro [10]” (setting [15]), 16000 nM; in “in vitro [10]” (setting [16]) it was 31000 nM; in the data set “in vitro [10]” (setting [17]), 13000 nM; in data set [13] it was 1000 nM.
